Entries after “also recorded” stand apart in the source; their conditions may differ.
What was measured:
human CRH promoter = experiment: hCRH-CAT reporter, transient transfection in primary human synoviocytes; format: cell-based; settings: -666/+111 hCRH-CAT; RA and PsA synoviocytes; 10 ng/ml IL-1β, IL-6, TNFα, 1 μM PGE2, MoCM; 12 h
Experimental: To determine whether inflammatory mediators are capable of regulating the expression of the human CRH promoter a reporter construct was generated by cloning the proximal promoter region (−666/+111) (SEQ ID NO: 143) of the human CRH gene into the promoterless pBL3-chloramphenicol acetyl transferase (CAT) plasmid to create hCRH-CAT. Transcriptional regulation of the hCRH promoter was measured by transient transfection in primary human synoviocytes. […] Three individual RA and PsA synoviocyte cell lines were transiently transfected with 3 μg -666 /+111 hCRH-CAT reporter plasmid to monitor CRH promoter activity, maintained under normal conditions (Con), or exposed to 10 ng/ml IL-1β, IL-6, TNFα1 μM PGE2, MoCM or 25 μM FOR for 12 h. […] Representative CAT levels produced by transfected cells are illustrated in FIG. 2B.
Synovial tissue was treated for 4 h with 1 mg/ml collagenase (type I; Worthington Biochemical, Freehold, N.J.) in RPMI at 37° C. in 5% CO2. Dissociated cells were plated in RPMI supplemented with 10% fetal calf serum (GibcoBRL, Paisley, UK), penicillin (100 U/ml), streptomycin (100 U/ml) and fungizone (0.25 μg/ml). […] Twenty-four hours before transfection, 1×10^6 synoviocyte cells were plated in 25 cm^2 dishes and allowed to attach. Endotoxin free-DNA ([…] CMV-β-galactosidase or 3 μg -666/+111 hCRH CAT (Murphy and Conneely, 1997) was added to 35 μl lipotaxi reagent (Stratagene, Cambridge, UK) in a volume of 900 μl RPMI (serum free) and incubated at room temperature for 30 min. RPMI (1.5 ml) was added to the transfection mixture, transferred onto the cells and incubated for 6 h at 37° C. in 5% CO2. An equal volume of media was added, and the cells were incubated overnight at 37° C. in 5% CO2. The DNA-lipotaxi containing media was replaced, and the cells were left untreated or treated with 10 ng/ml IL-1β, IL-6, TNFα, 1 μM PGE2 or MoCM and incubated for a further 24 h. Chloramphenicol acetyl transferase (CAT) levels were measured using a CAT ELISA (Boehringer Mannheim, Germany). Protein concentrations were determined by the Bradford assay (BioRad, Richmond, Calif.). For β-galactosidase assays cells were washed with cold phosphate buffered saline (PBS), fixed with cold 0.5% glutaraldehyde and washed twice with PBS before incubation with staining solution (1M MgCl2, 5M NaCL, 0.5M HEPES pH7.3, 30 mM potassium ferricyanide, 30 mM potassium ferrocyanide and 2% 5-bromo-4-chloro-3-indoyl-β-galactopyranoside) for 12 h at 37° C.

NURR1 mRNA = experiment: Northern blot of NURR1 mRNA in primary synoviocytes; format: cell-based, human; settings: for NURR1 mRNA levels after stimulation: 25 μM forskolin, 20 ng/ml PMA, 10 ng/ml TNFα, IL-1β, IL-6, 1 μM PGE2, CRH
Experimental: Regulation of gene expression by the protein kinase A and C pathways represent important signaling events in RA synoviocytes (Ben-Av et al., 1995; Crofford et al., 1994; Firestein and Manning, 1999). […] To investigate the involvement of the protein kinase C signaling pathways in NURR regulation, synoviocytes were treated with phorbal myristic acetate (PMA). […] In contrast, dexamethasone had little effect on forskolin- or PMA-induced NUR77 levels.
In FIG. 4 total RNA was extracted and northern blot analysis was performed. Filters were hybridized with a cDNA for NURR1 or NUR77 and also with GAPDH to control for loading and transfer. Synovial explants were left untreated [C] or incubated with 10^−8M CRH for the indicated times. (FIG. 4A) Confluent monolayers of primary synoviocytes were left untreated [C] or pretreated with 10^−8M dexamethasone (DEX) for 2 h prior to the addition of 25μM forskolin (FOR) or 20 ng/ml of phorbal myristic acetate (PMA). (FIG. 4B)
Therefore the pathological importance of the NURR transcription factors in inflammatory joint disease was further examined by determining the ability of pro-inflammatory agonists to regulate NURR transcript levels in primary synoviocytes and synovium explant tissue (FIG. 6).
For FIG. 6 each membrane was reprobed with a GAPDH cDNA to control for loading and transfer. NURR1 mRNA levels were measured by northern analysis using total RNA extracted from synoviocytes left untreated [C] or cultured for the time indicated with (A) TNFα (10 ng/ml) in the presence or absence of pre-treatment with 10^−8M dexamethasone (DEX). (B) IL-1β(10 ng/ml) in the presence or absence of pretreatment with 2 μM indomethacin (INDO) or 10^−8M DEX. (C) or synovial explants cultured with IL-6 (10 ng/ml). (D) 1 μM PGE2. (E) 25 μM forskolin (FOR) or […] for 1h in the absence or presence of 5 µg/ml cycloheximide (CHX).
Northern analysis of primary RA synoviocytes were untreated (lane 1) or treated for 1 hour with TNFα (lane 2), IL-1β (lane 3), and PGE2 (lane 4). TNFα and IL-1β were used at a concentration of 10 ng/mL and PGE2 was at a concentration of 10^-6 M.
Total RNA was isolated from cultured primary synoviocytes or synovial explants. RNA was quantitated by UV absorption and 10 μg of total RNA were electrophoresed on a standard northern gel and transferred to nylon membrane (BioRad, Richmond, Calif.). NURR1 and NUR77 cDNA probes (Murphy and Conneely, 1997), spanning the amino terminal region to avoid cross-hybridization, were radiolabeled to a high specific activity using [α-^32P] dCTP and a random primer labeling system (Promega, Madison, Wis.). Blots were exposed to film at −80° C. using intensifying screens and autoradiographic intensity was quantitated using an imaging densitometer.

| Compound | transcriptional activity of the hCRH promoter (CAT), fold (human CRH promoter) | NURR1 mRNA levels after stimulation (NURR1 mRNA) | effect in stimulating NURR1 mRNA compared with the other agonists (NURR1 mRNA; PGE2 1 μM, 10^-6 M) |
| --- | --- | --- | --- |
| TNFα | 15.6+/−1.9 fold | rapid and marked increase; also recorded: increased | – |
| IL-6: pro-inflammatory cytokine | 3.2+/−1.9 fold | did not significantly induce | – |
| CCCCC[C@H](O)/C=C/[C@H]1[C@H](O)CC(=O)[C@@H]1C/C=C\CCCC(=O)O [PGE2, reference compound] | 28.8+/−1.7 fold | rapid and marked increase | most potent and sustained effect |
| IL-1β: pro-inflammatory cytokine | 17.1+/−3.1 fold | rapid and marked increase | – |

— patent US20020049151A1, “Therapeutic approaches to diseases by suppression of the NURR subfamily of nuclear transcription factors” (priority 2000, published 2002)
